This note sets out measurements from patent EP0399716A1, “Hypoallergenic steroidal anesthetic/hypnotic compositions” (INNOVET, INC., priority 1989, dated 1990).

The series has as its system horses. Kind of series: Alfaxalone/HPCD anesthesia in the horse. The procedure: In the first stage, two horses were anesthetized after heavy premedication with xylazine (0.6 mg/kg). […] Heart rate, respiratory rate, blood pressure, ECG and ventilation were monitored throughout the anesthesia period.
The same parameters as in the first stage were monitored.
Cardiopulmonary parameters were monitored as before.
To provide some comparison in the above stages, the two horses were anesthetized with thiamylal sodium (8 mg/kg) after the same premedication as before and a similar monitoring regime followed.
A third horse was obtained and the same regimen was followed as in the third stage, but three "top-ups" of one-third induction dose were administered at 10 minute intervals. Similar monitoring as above was continued.
Blood pressure was measured from an acutely placed antraarterial catheter and read through a transducer/digital readout system which included an ECG tracing oscilloscope.

The structures appear in SMILES notation.

Consider `CC(=O)[C@H]1CC[C@H]2[C@@H]3CC[C@H]4C[C@H](O)CC[C@]4(C)[C@H]3C(=O)C[C@]12C` (stereo in doubt) [alfaxalone, 3α-hydroxy-5α-pregnane-11,20-dione], for which the “recoveries classified as excellent” value (alfaxalone alone recoveries) is given as “Four of the five”.

As to `C=CCC1(C(C)CCC)C(=O)N=C(S)NC1=O` (stereo not drawn) [thiamylal, thiamylal sodium], under “after xylazine premedication”, the blood pressure effect result is “the same effect”.

In the case of `Cc1cccc(C)c1N=C1NCCCS1` [xylazine], where the note is “0.6 mg/kg i.v.”, the sedation result is “good sedation without ataxia”.
